Experimental findings from paper PMC3764405, “Synthesis and evaluation of a ^125I-labeled iminodihydroquinoline-derived tracer for imaging of voltage-gated sodium channels^” (Bioorganic & Medicinal Chemistry Letters, 2013) are described below.

The target of the test is T1, human Nav1.2 isoform (hNav1.2) (Homo sapiens, UniProt Q99250).
T1 construct: gene SCN2A
Briefly: automated patch clamp, CHO cells transfected with hNav1.[…]. It is filed as cell-based.

T1 sequence (Q99250 whole entry, canonical isoform): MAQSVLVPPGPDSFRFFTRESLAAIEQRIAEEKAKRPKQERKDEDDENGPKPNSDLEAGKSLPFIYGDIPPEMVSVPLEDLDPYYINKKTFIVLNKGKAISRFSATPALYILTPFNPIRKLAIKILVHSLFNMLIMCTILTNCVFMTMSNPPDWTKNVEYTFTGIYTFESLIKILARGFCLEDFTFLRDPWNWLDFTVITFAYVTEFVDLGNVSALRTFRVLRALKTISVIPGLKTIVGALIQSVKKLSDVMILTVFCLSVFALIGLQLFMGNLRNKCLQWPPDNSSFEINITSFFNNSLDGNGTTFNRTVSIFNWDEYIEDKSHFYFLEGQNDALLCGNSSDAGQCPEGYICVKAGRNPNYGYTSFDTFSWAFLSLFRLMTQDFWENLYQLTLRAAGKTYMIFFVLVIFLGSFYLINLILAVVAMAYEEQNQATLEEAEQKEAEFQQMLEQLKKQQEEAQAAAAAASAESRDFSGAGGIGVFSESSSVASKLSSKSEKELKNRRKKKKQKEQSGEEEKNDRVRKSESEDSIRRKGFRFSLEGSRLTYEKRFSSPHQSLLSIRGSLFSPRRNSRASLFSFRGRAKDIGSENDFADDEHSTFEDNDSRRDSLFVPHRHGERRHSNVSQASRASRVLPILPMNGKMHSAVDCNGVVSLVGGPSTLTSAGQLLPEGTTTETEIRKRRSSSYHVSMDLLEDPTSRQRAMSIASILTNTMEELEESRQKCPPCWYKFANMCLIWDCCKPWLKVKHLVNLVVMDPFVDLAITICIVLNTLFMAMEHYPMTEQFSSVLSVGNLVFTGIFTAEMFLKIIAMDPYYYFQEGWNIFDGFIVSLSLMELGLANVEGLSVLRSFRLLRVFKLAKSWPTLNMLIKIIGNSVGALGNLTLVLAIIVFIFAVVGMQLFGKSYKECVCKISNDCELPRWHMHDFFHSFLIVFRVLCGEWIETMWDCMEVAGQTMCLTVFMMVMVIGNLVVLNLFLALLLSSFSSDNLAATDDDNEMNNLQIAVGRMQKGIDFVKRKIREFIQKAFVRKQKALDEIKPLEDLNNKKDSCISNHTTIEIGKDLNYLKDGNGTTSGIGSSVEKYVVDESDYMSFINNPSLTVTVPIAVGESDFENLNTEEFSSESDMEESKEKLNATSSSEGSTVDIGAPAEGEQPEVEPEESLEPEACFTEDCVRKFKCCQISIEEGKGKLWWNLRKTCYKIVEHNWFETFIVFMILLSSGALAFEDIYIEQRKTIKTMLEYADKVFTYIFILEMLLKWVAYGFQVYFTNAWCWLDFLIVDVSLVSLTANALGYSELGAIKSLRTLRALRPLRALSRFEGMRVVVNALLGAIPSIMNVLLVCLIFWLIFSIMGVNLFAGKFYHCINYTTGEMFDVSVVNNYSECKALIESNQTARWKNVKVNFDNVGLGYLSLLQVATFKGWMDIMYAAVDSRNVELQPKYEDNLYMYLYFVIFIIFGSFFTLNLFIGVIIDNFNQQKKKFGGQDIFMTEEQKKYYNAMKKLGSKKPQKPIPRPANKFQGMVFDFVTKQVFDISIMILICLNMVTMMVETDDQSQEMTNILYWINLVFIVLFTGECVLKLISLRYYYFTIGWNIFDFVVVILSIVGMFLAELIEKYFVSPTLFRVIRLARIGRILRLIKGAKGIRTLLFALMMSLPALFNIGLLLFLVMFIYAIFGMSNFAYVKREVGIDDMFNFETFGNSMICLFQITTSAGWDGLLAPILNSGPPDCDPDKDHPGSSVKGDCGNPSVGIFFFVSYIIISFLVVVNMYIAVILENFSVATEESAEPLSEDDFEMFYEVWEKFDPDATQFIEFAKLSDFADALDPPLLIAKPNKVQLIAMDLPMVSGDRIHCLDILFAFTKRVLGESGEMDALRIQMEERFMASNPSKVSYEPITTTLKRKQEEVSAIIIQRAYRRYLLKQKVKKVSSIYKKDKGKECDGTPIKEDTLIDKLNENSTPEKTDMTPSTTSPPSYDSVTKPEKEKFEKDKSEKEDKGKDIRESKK

As a reminder, the IC50 is the concentration that inhibits the measured activity by half. In the case of `CCCCCN=c1ccn(Cc2ccccc2)c2cc(Cl)ccc12` [WIN17317-3], the 50% inhibitory concentration (IC50) is 2200 ± 1200 nM.

`CCCCCN=c1ccn(Cc2ccccc2)c2cc(I)ccc12` [compound 10, 10] had a half-maximal inhibitory concentration (IC50) of 1500 ± 500 nM.
